The values below come from patent US20160130278A1 (TAISHO PHARMACEUTICAL CO., LTD, priority 2013, published 2016).

The test addresses T1, human type 1 glycine transporter (GlyT1) (Homo sapiens, UniProt P48067).
T1 construct: T98G cells (glioma cells) expressing human type 1 glycine transporter (GlyT1) were used
T1 sequence (P48067 1-706): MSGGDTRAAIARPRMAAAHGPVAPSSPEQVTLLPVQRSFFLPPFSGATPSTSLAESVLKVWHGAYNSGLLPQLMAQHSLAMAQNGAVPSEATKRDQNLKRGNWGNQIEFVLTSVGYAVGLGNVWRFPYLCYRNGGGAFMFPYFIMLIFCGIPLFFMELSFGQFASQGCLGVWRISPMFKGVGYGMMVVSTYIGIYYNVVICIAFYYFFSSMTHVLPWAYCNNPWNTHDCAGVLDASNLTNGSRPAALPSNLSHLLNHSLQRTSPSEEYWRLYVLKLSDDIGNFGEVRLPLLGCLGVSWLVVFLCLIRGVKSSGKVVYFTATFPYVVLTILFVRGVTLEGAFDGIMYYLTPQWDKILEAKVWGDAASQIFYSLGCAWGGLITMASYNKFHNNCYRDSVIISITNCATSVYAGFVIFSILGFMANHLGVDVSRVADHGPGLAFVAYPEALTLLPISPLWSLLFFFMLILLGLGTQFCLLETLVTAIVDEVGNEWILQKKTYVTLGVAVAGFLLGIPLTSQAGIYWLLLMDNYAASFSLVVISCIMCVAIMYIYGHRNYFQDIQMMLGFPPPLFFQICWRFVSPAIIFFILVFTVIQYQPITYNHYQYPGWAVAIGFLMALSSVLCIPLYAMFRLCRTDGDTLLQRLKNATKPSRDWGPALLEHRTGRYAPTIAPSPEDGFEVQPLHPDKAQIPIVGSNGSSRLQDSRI
Put plainly: Glycine uptake inhibition experiment ([3H]glycine uptake). Format: cell-based. The settings on record: GlyT1. Summed up:
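T98G glioma cells expressing human GlyT1 were pretreated 10 min with compound in HEPES buffer pH 7.4 (0.2% BSA), then incubated with compound plus 250 nM final [3H]glycine for 15 min at room temperature. Intracellular radioactivity was counted after NaOH lysis; 10 μM ALX5407 defined non-specific uptake. IC50 came from 10^−9–10^−5 M curves.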

For `O=C(NC(c1ccccc1Cl)C1(O)CCC(F)(F)CC1)c1nccc(C(F)(F)F)c1Cl` (single isomer, unassigned) [Compound 156, 3-chloro-N-[(2-chlorophenyl)(4,4-difluoro-1-hydroxycyclohexyl)methyl]-4-(trifluoromethyl)pyridine-2-carboxamide], the concentration for half-maximal inhibition (IC50) was 1800 nM. The figure for `O=C(NC(c1cccc(F)c1F)C1(O)CCC(F)(F)CC1)c1nccc(C(F)(F)F)c1Cl` (single isomer, unassigned) [Compound 164, 3-chloro-N-[(4,4-difluoro-1-hydroxycyclohexyl)(2,3-difluorophenyl)methyl]-4-(trifluoromethyl)pyridine-2-carboxamide] is 120 nM.

As to `O=C(NC(c1cccc(F)c1F)C1(O)CCC(F)(F)CC1)c1ccnc(C(F)(F)F)c1Cl` (single isomer, unassigned) [Compound 165, 3-chloro-N-[(4,4-difluoro-1-hydroxycyclohexyl)(2,3-difluorophenyl)methyl]-2-(trifluromethyl)pyridine-4-carboxamide], it took 210 nM to reach half-maximal inhibition (IC50).

Compound `O=C(NC(c1cccc(Cl)c1)C1(O)CCC(F)(F)CC1)c1nccc(C(F)(F)F)c1Cl` (single isomer, unassigned) [Compound 166, 3-chloro-N-[(3-chlorophenyl)(4,4-difluoro-1-hydroxycyclohexyl)methyl]-4-(trifluoromethyl)pyridine-2-carboxamide] returned an IC50 of 180 nM. `O=C(NC(c1cccc(Cl)c1)C1(O)CCC(F)(F)CC1)c1ccnc(C(F)(F)F)c1Cl` (single isomer, unassigned) [Compound 167, 3-chloro-N-[(3-chlorophenyl)(4,4-difluoro-1-hydroxycyclohexyl)methyl]-2-(trifluoromethyl)pyridine-4-carboxamide] gave an IC50 of 210 nM.

Turning to `O=C(NC(c1cccc(Cl)c1F)C1(O)CCC(F)(F)CC1)c1nccc(C(F)(F)F)c1Cl` (single isomer, unassigned) [Compound 168, 3-chloro-N-[(3-chloro-2-fluorophenyl)(4,4-difluoro-1-hydroxycyclohexyl)methyl]-4-(trifluoromethyl)pyridine-2-carboxamide], the IC50 was determined as 57 nM. The figure for `O=C(NC(c1cccc(Cl)c1F)C1(O)CCC(F)(F)CC1)c1ccnc(C(F)(F)F)c1Cl` (single isomer, unassigned) [Compound 169, 3-chloro-N-[(3-chloro-2-fluorophenyl)(4,4-difluoro-1-hydroxycyclohexyl)methyl]-2-(trifluoromethyl)pyridine-4-carboxamide] is 95 nM; for `O=C(NC(c1cccc(F)c1Cl)C1(O)CCC(F)(F)CC1)c1nccc(C(F)(F)F)c1Cl` (single isomer, unassigned) [Compound 177, 3-chloro-N-[(2-chloro-3-fluorophenyl)(4,4-difluoro-1-hydroxycyclohexyl)methyl]-4-(trifluoromethyl)pyridine-2-carboxamide] it is 100 nM. The same measure for `O=C(NC(c1cccc(F)c1Cl)C1(O)CCC(F)(F)CC1)c1ccnc(C(F)(F)F)c1Cl` (single isomer, unassigned) [Compound 178, 3-chloro-N-[(2-chloro-3-fluorophenyl)(4,4-difluoro-1-hydroxycyclohexyl)methyl]-2-(trifluoromethyl)pyridine-4-carboxamide]: 130 nM. The same measure for `O=C(NC(c1cccc(Cl)c1)C1(O)CCCC1)c1ccnc(C(F)(F)F)c1Cl` (single isomer, unassigned) [Compound 185, 3-chloro-N-[(3-chlorophenyl)(1-hydroxycyclopentyl)methyl]-2-(trifluoromethyl)pyridine-4-carboxamide]: 140 nM. `O=C(NC(c1cccc(-c2ccccn2)c1)C1(O)CCC(F)(F)CC1)c1nccc(C(F)(F)F)c1Cl` (single isomer, unassigned) [Compound 188, 3-chloro-N-{(4,4-difluoro-1-hydroxycyclohexyl)[3-(pyridin-2-yl)phenyl]methyl]-4-(trifluoromethyl)pyridine-2-carboxamide] yielded an IC50 of 73 nM.

Take `O=C(NC(c1cccc(-c2ccccn2)c1)C1(O)CCC(F)(F)CC1)c1ccnc(C(F)(F)F)c1Cl` (single isomer, unassigned) [Compound 189, 3-chloro-N-{(4,4-difluoro-1-hydroxycyclohexyl)[3-(pyridin-2-yl)phenyl]methyl}-2-(trifluoromethyl)pyridine-4-carboxamide]: the concentration for half-maximal inhibition (IC50) was determined as 200 nM. The figure for `O=C(NC(c1cccc(-c2ccccn2)c1)C1(O)CCC(F)(F)CC1)c1cc(C(F)(F)F)ccc1Cl` (single isomer, unassigned) [Compound 190, 2-chloro-N-[(4,4-difluoro-1-hydroxycyclohexyl)[3-(pyridin-2-yl)phenyl]methyl}-5-(trifluoromethyl)benzamide] is 490 nM. For the compound `CCn1cc(-c2cccc(C(NC(=O)c3cc(Cl)ccc3Cl)C3(O)CCC(F)(F)CC3)c2)cn1` (single isomer, unassigned) [Compound 193, 2,5-dichloro-N-{(4,4-difluroo-1-hydroxycyclohexyl)[3-(1-ethyl-1H-pyrazol-4-yl)phenyl]methyl}benzamide], 830 nM corresponded to half-maximal inhibition (IC50). The figure for `CCn1cc(-c2cccc(C(NC(=O)c3cc(Cl)ccc3Cl)C3(O)CCC(F)(F)CC3)c2)cn1` (single isomer, unassigned) [Compound 194, 2,5-dichloro-N-{(4,4-difluoro-1-hydroxycyclohexyl)[3-(1-ethyl-1H-pyrazol-4-yl)phenyl]methyl}benzamide] is 760 nM. Take `CCn1cc(-c2cccc(C(NC(=O)c3cccc4ccccc34)C3(O)CCC(F)(F)CC3)c2)cn1` (single isomer, unassigned) [Compound 195, N-{(4,4-difluoro-1-hydroxycyclohexyl)[3-(1-ethyl-1H-pyrazol-4-yl)phenyl]methyl}naphthalene-1-carboxamide]: the IC50 is 1100 nM. The figure for `CCn1cc(-c2cccc(C(NC(=O)c3cccc4ccccc34)C3(O)CCC(F)(F)CC3)c2)cn1` (single isomer, unassigned) [Compound 196, N-{(4,4-difluoro-1-hydroxycyclohexyl)[3-(1-ethyl-1H-pyrazol-4-yl)phenyl]methyl}naphthalene-1-carboxamide] is 290 nM. The figure for `O=C(NC(c1ccccc1Cl)[C@]1(O)CC[C@@H](F)CC1)c1nccc(C(F)(F)F)c1Cl` (single isomer, unassigned) [Compound 197, 3-chloro-N-[(2-chlorophenyl)(cis-4-fluoro-1-hydroxycyclohexyl)methyl]-4-(trifluoromethyl)pyridine-2-carboxamide] is 53 nM; for `O=C(NC(c1ccccc1Cl)[C@]1(O)CC[C@H](F)CC1)c1nccc(C(F)(F)F)c1Cl` (single isomer, unassigned) [Compound 198, 3-chloro-N-[(2-chlorophenyl)(trans-4-fluoro-1-hydroxycyclohexyl)methyl]-4-(trifluoromethyl)pyridine-2-carboxamide] it is 200 nM; for `O=C(NC(c1cccc(Cl)c1F)C1(O)CCC(F)CC1)c1nccc(C(F)(F)F)c1Cl` (single isomer, unassigned) [Compound 199, 3-chloro-N-[(3-chloro-2-fluorophenyl)(4-fluoro-1-hydroxycyclohexyl)methyl]-4-(trifluoromethyl)pyridine-2-carboxamide] it is 82 nM. For `O=C(NC(c1cccc(Cl)c1F)C1(O)CCC(F)CC1)c1nccc(C(F)(F)F)c1Cl` (single isomer, unassigned) [Compound 200, 3-chloro-N-[(3-chloro-2-fluorophenyl)(4-fluoro-1-hydroxycyclohexyl)methyl}-4-(trifluoromethyl)pyridine-2-carboxamide], the half-inhibitory concentration (IC50) was 64 nM. The figure for `O=C(NC(c1cccc(Cl)c1F)C1(O)CCC(F)CC1)c1ccnc(C(F)(F)F)c1Cl` (single isomer, unassigned) [Compound 201, 3-chloro-N-[(3-chloro-2-fluorophenyl)(4-fluoro-1-hydroxycyclohexyl)methyl]-2-(trifluoromethyl)pyridine-4-carboxamide] is 130 nM; for `O=C(NC(c1cccc(F)c1F)C1(O)CCC(F)CC1)c1nccc(C(F)(F)F)c1Cl` (single isomer, unassigned) [Compound 204, 3-chloro-N-[(2,3-difluorophenyl)(4-fluoro-1-hydroxycyclohexyl)methyl]-4-(trifluoromethyl)pyridine-2-carboxamide] it is 100 nM; for `O=C(NC(c1ccccc1Cl)[C@]1(O)CC[C@@H](F)CC1)c1nccc(C(F)(F)F)c1Cl` (single isomer, unassigned) [Compound 210, 3-chloro-N-[(2-chlorophenyl)(cis-4-fluoro-1-hydroxycyclohexyl)methyl]-4-(trifluoromethyl)pyridine-2-carboxamide] it is 3200 nM.

What is called IC50 is the concentration that gives 50% inhibition. Read a high IC50 as a need for much substance.
